The record followed here is patent EP1247803A2, “Indolinone compounds suitable for modulation of protein kinases” (Sugen, Inc., priority 1996, dated 1998).

The target in one assay is PDGF-R (Homo sapiens, UniProt P09619). The assay is described as follows: PDGF-R ELISA. The class given is cell-based. An excerpt: A PDGF-R ELISA is described in International Patent Publication No. WO 96/40116, published December 19, 1996 by Tang et al.
(In general: An ELISA detects its analyte on a solid surface through an enzyme-linked reagent.)

The target in another assay is T1, FLK-1 receptor (Mus musculus, UniProt P35918).
T1 construct: expressed in transfected cells; host or cells: NIH3T3 C7#3
The experiment in a line: FLK-1 ELISA (kinase activity of the FLK-1 receptor in FLK-1/NIH3T3 cells, VEGF stimulated). In kind it is cell-based. Details: concentration or dose not given beside the values. The gist of the method:
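An ELISA using affinity-purified rabbit anti-FLK-1 antiserum on anti-rabbit IgG-coated plates measured VEGF-stimulated FLK-1 kinase activity. NIH3T3 C7#3 cells carrying FLK-1 were serum-starved (0.1% FBS) overnight, then exposed to compound (final 1:200 dilution, 0.5% DMSO) for two hours at 37 °C.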

A further assay concerns MET. The experiment in a line: MET biochemical kinase assay. Details: species or system human; concentration or dose not given beside the values. The method in brief: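 Colorimetric signal from an HRP-linked anti-phosphotyrosine antibody with TMB measures phosphate incorporated into immobilised MET. The receptor is pulled from lysates by a polyclonal antibody against its cytoplasmic domain, then reacts in ATP- and metal-containing buffer with test compound.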

Chain of PDGF-R (P09619 33-1106, species assumed): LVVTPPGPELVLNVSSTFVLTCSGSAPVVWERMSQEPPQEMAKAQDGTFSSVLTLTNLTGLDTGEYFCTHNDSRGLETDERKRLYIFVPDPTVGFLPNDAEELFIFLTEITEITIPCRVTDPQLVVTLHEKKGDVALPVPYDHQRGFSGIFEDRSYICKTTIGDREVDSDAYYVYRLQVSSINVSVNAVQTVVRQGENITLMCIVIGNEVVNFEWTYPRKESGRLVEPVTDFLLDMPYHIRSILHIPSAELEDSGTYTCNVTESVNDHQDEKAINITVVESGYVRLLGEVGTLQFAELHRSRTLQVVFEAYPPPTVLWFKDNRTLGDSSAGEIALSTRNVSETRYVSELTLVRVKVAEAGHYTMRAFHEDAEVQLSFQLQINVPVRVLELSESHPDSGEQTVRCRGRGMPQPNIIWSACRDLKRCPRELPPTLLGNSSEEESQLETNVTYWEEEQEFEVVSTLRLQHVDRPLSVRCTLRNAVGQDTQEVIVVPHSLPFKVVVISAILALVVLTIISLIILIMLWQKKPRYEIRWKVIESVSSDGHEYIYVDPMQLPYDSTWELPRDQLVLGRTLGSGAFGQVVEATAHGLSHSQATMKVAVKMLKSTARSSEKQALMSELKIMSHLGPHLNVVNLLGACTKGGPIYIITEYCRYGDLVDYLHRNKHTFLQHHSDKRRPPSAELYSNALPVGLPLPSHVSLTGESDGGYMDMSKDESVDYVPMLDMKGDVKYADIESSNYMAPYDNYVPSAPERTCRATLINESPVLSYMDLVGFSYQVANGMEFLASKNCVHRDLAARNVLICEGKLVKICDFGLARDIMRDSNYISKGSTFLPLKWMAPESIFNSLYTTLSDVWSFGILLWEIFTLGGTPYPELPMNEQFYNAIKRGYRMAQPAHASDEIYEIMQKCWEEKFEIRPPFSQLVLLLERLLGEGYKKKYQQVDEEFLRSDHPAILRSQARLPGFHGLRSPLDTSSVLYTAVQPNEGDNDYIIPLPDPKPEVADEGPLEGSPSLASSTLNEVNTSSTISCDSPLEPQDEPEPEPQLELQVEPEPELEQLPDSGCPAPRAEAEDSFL
T1 sequence (P35918 20-1345): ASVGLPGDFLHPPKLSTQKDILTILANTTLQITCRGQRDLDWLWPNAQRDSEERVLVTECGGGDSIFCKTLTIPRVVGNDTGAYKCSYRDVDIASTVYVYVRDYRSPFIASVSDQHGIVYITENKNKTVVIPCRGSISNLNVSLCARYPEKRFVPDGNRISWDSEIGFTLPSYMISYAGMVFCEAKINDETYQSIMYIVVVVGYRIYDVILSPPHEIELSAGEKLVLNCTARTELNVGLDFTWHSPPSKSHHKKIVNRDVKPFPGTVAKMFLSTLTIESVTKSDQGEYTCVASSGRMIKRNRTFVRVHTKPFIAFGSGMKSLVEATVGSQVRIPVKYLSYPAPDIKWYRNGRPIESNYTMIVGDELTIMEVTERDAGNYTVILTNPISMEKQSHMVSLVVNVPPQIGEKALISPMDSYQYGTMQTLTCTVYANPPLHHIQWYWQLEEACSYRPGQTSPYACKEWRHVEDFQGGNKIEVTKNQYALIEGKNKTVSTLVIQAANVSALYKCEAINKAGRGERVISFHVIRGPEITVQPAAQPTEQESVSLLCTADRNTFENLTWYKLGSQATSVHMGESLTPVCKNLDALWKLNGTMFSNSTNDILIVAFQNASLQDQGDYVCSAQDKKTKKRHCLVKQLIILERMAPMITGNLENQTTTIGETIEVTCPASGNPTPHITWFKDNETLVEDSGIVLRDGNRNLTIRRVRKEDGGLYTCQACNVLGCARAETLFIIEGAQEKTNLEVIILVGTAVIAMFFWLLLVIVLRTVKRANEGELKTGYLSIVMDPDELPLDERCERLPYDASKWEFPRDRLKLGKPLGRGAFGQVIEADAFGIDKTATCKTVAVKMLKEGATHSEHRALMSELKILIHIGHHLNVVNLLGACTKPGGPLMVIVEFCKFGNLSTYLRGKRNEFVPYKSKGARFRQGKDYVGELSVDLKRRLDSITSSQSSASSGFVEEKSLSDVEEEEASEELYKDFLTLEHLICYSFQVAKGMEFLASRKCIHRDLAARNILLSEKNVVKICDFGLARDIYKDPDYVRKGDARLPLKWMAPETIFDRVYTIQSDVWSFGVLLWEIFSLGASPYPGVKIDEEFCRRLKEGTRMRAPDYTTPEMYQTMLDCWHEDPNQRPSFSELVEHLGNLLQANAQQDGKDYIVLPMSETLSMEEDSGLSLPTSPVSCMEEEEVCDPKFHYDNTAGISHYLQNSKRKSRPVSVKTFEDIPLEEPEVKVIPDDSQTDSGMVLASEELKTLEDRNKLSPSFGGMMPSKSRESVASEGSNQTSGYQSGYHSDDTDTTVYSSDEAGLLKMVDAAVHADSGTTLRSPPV

For `O=C1Nc2c(Br)cc(Br)cc2C1=Cc1ccncc1` [10729/A09], on PDGF-R, the “PDGF Kinase %Inhibition” value was 11.0%. Also, the “Fik Kinase %Inhibition” value at FLK-1 receptor was 0.4%. The “Met Kinase % Inhibition” value in the assay with MET was 80.3%.
On to `O=C1Nc2c(Br)cc(Br)cc2C1=Cc1ccc(N2CCCC2)cc1` [10729/A10], for which, at PDGF-R, the “PDGF Kinase %Inhibition” value is -12.8%. Also, the “Fik Kinase %Inhibition” value on FLK-1 receptor is 0.7%. The “Met Kinase % Inhibition” value with MET came out at 34.8%.
`O=C1Nc2c(Br)cc(Br)cc2C1=CC1C=CCCC1` (stereo not drawn) [10729/A11]: the “PDGF Kinase %Inhibition” value at PDGF-R is listed as -11.7%. Besides, the “Fik Kinase %Inhibition” value on FLK-1 receptor was 4.9%. For the same compound, the “Met Kinase % Inhibition” value in the assay with MET stood at 49.9%.
The like results for `COc1ccc2ccccc2c1C=C1C(=O)Nc2ccc(I)cc21` [10729/B02] were, in that order, -10.2%, 13.8% and 77.2%.
With `COc1ccc(C=C2C(=O)Nc3ccc(I)cc32)c2ccccc12` [10729/B03], on PDGF-R, the “PDGF Kinase %Inhibition” value is -9.4%. The “Fik Kinase %Inhibition” value on FLK-1 receptor came out at 11.2%. Also, the “Met Kinase % Inhibition” value in the assay on MET is on record as 57.3%.
`CSc1ccc(C=C2C(=O)Nc3ccc(I)cc32)cc1` [10729/B04]: on PDGF-R, the “PDGF Kinase %Inhibition” value is given as -22.7%. Besides, the “Fik Kinase %Inhibition” value on FLK-1 receptor was 0.1%. Besides, in the assay on MET, the “Met Kinase % Inhibition” value was determined as 43.8%.
For the compound `Cc1ccsc1C=C1C(=O)Nc2ccc(I)cc21` [10729/B05], at PDGF-R, the “PDGF Kinase %Inhibition” value is given as -25.7%. The “Fik Kinase %Inhibition” value at FLK-1 receptor is reported as -5.2%. In addition, the “Met Kinase % Inhibition” value in the assay with MET came out at 51.0%.
The like results for `O=C1Nc2ccc(I)cc2C1=Cc1cccc(Oc2ccccc2)c1` [10729/B06] were, in that order, -19.2%, 2.0% and 61.1%.
Turning to `O=C1Nc2ccc(I)cc2C1=Cc1ccccn1` [10729/B07], the “PDGF Kinase %Inhibition” value on PDGF-R is reported as -33.2%. Also, on FLK-1 receptor, the “Fik Kinase %Inhibition” value was -13.4%. Further, the “Met Kinase % Inhibition” value with MET stood at 58.2%.
Consider `O=C1Nc2ccc(I)cc2C1=Cc1cccnc1` [10729/B08], for which the “PDGF Kinase %Inhibition” value at PDGF-R is -13.6%. Besides, the “Fik Kinase %Inhibition” value on FLK-1 receptor is -14.7%. Moreover, in the assay on MET, the “Met Kinase % Inhibition” value amounted to 66.0%.
As to `O=C1Nc2ccc(I)cc2C1=Cc1ccncc1` [10729/B09], the “PDGF Kinase %Inhibition” value on PDGF-R is reported as -6.4%. Besides, the “Fik Kinase %Inhibition” value at FLK-1 receptor was -16.0%. In addition, in the assay on MET, the “Met Kinase % Inhibition” value was determined as 47.2%.
On to `O=C1Nc2ccc(I)cc2C1=Cc1ccc(N2CCCC2)cc1` [10729/B10], for which, at PDGF-R, the “PDGF Kinase %Inhibition” value is on record as -13.9%. For the same compound, the “Fik Kinase %Inhibition” value on FLK-1 receptor is given as -0.7%. The “Met Kinase % Inhibition” value in the assay on MET turned out to be 32.6%.
Take `O=C1Nc2ccc(I)cc2C1=CC1C=CCCC1` (stereo not drawn) [10729/B11]: the “PDGF Kinase %Inhibition” value at PDGF-R stood at 4.2%. Also, the “Fik Kinase %Inhibition” value on FLK-1 receptor is given as 7.8%. Moreover, the “Met Kinase % Inhibition” value in the assay with MET is 36.6%.
On to `COc1ccc2ccccc2c1C=C1C(=O)Nc2ccc(Br)c(C)c21` [10729/C02], for which the “PDGF Kinase %Inhibition” value on PDGF-R is reported as 9.1%. Further, the “Fik Kinase %Inhibition” value on FLK-1 receptor is reported as 6.0%. The “Met Kinase % Inhibition” value with MET worked out at 18.2%.
On the same counts, the results for `COc1ccc(C=C2C(=O)Nc3ccc(Br)c(C)c32)c2ccccc12` [10729/C03] are 13.7%, 11.0% and 13.5%.
Regarding `CSc1ccc(C=C2C(=O)Nc3ccc(Br)c(C)c32)cc1` [10729/C04], the “PDGF Kinase %Inhibition” value on PDGF-R is 4.2%. On FLK-1 receptor, the “Fik Kinase %Inhibition” value is listed as -2.5%. Also, in the assay with MET, the “Met Kinase % Inhibition” value is on record as 20.7%.
On to `Cc1ccsc1C=C1C(=O)Nc2ccc(Br)c(C)c21` [10729/C05], for which the “PDGF Kinase %Inhibition” value on PDGF-R is -5.6%. In addition, on FLK-1 receptor, the “Fik Kinase %Inhibition” value is on record as 5.8%. Further, the “Met Kinase % Inhibition” value with MET was 15.5%.
As for `Cc1c(Br)ccc2c1C(=Cc1cccc(Oc3ccccc3)c1)C(=O)N2` [10729/C06], the “PDGF Kinase %Inhibition” value on PDGF-R is listed as 3.1%. In addition, at FLK-1 receptor, the “Fik Kinase %Inhibition” value was 3.8%. In addition, the “Met Kinase % Inhibition” value with MET is 15.2%.
On the same counts, the results for `Cc1c(Br)ccc2c1C(=Cc1ccccn1)C(=O)N2` [10729/C07] are -1.8%, -22.4% and 58.4%.
On the same counts, the results for `Cc1c(Br)ccc2c1C(=Cc1cccnc1)C(=O)N2` [10729/C08] are -13.6%, -20.3% and 55.7%.
As to `Cc1c(Br)ccc2c1C(=Cc1ccncc1)C(=O)N2` [10729/C09], the “PDGF Kinase %Inhibition” value at PDGF-R is given as -34.8%. Further, at FLK-1 receptor, the “Fik Kinase %Inhibition” value was -26.4%. In the assay on MET, the “Met Kinase % Inhibition” value is 60.4%.
As to `Cc1c(Br)ccc2c1C(=Cc1ccc(N3CCCC3)cc1)C(=O)N2` [10729/C10], on PDGF-R, the “PDGF Kinase %Inhibition” value is on record as 3.5%. Also, the “Fik Kinase %Inhibition” value at FLK-1 receptor turned out to be 2.5%. In the assay with MET, the “Met Kinase % Inhibition” value is on record as 15.8%.
As for `Cc1c(Br)ccc2c1C(=CC1C=CCCC1)C(=O)N2` (stereo not drawn) [10729/C11], the “PDGF Kinase %Inhibition” value on PDGF-R is -17.4%. In addition, the “Fik Kinase %Inhibition” value on FLK-1 receptor is reported as 10.4%. Moreover, the “Met Kinase % Inhibition” value with MET worked out at 41.3%.
As to `CNS(=O)(=O)c1ccc2c(c1)C(=Cc1c(OC)ccc3ccccc13)C(=O)N2` [10729/D02], the “PDGF Kinase %Inhibition” value at PDGF-R turned out to be 15.6%. Further, on FLK-1 receptor, the “Fik Kinase %Inhibition” value was determined as 12.2%. Also, the “Met Kinase % Inhibition” value with MET turned out to be 31.7%.
With `CNS(=O)(=O)c1ccc2c(c1)C(=Cc1ccc(OC)c3ccccc13)C(=O)N2` [10729/D03], the “PDGF Kinase %Inhibition” value on PDGF-R is 14.1%. The “Fik Kinase %Inhibition” value on FLK-1 receptor was determined as 15.3%. Further, the “Met Kinase % Inhibition” value with MET is 22.6%.
Take `CNS(=O)(=O)c1ccc2c(c1)C(=Cc1ccc(SC)cc1)C(=O)N2` [10729/D04]: the “PDGF Kinase %Inhibition” value on PDGF-R is -12.8%. Also, the “Fik Kinase %Inhibition” value on FLK-1 receptor was -5.7%. In the assay with MET, the “Met Kinase % Inhibition” value was 33.1%.
As for `CNS(=O)(=O)c1ccc2c(c1)C(=Cc1sccc1C)C(=O)N2` [10729/D05], at PDGF-R, the “PDGF Kinase %Inhibition” value came to 2.3%. The “Fik Kinase %Inhibition” value at FLK-1 receptor is 2.2%. The “Met Kinase % Inhibition” value with MET was 28.1%.
The like results for `CNS(=O)(=O)c1ccc2c(c1)C(=Cc1cccc(Oc3ccccc3)c1)C(=O)N2` [10729/D06] were, in that order, 2.7%, 0.2% and 30.2%.
As to `CNS(=O)(=O)c1ccc2c(c1)C(=Cc1ccccn1)C(=O)N2` [10729/D07], the “PDGF Kinase %Inhibition” value at PDGF-R is recorded as -20.0%. Further, the “Fik Kinase %Inhibition” value on FLK-1 receptor is given as -15.3%. Moreover, the “Met Kinase % Inhibition” value in the assay with MET came out at 25.5%.
Regarding `CNS(=O)(=O)c1ccc2c(c1)C(=Cc1cccnc1)C(=O)N2` [10729/D08], on PDGF-R, the “PDGF Kinase %Inhibition” value is -21.1%. Also, the “Fik Kinase %Inhibition” value on FLK-1 receptor was -26.2%. Further, the “Met Kinase % Inhibition” value with MET is listed as 27.6%.
On to `CNS(=O)(=O)c1ccc2c(c1)C(=Cc1ccncc1)C(=O)N2` [10729/D09], for which the “PDGF Kinase %Inhibition” value at PDGF-R was -12.1%. The “Fik Kinase %Inhibition” value on FLK-1 receptor is listed as -9.6%. Besides, in the assay on MET, the “Met Kinase % Inhibition” value came to 34.8%.
As to `CNS(=O)(=O)c1ccc2c(c1)C(=Cc1ccc(N3CCCC3)cc1)C(=O)N2` [10729/D10], the “PDGF Kinase %Inhibition” value on PDGF-R is on record as -11.3%. The “Fik Kinase %Inhibition” value on FLK-1 receptor is 4.1%. For the same compound, the “Met Kinase % Inhibition” value in the assay with MET is 36.1%.
Regarding `CNS(=O)(=O)c1ccc2c(c1)C(=CC1C=CCCC1)C(=O)N2` (stereo not drawn) [10729/D11], the “PDGF Kinase %Inhibition” value on PDGF-R is 0.1%. Moreover, the “Fik Kinase %Inhibition” value on FLK-1 receptor is reported as -2.0%. Further, the “Met Kinase % Inhibition” value with MET is given as 18.8%.
On to `COc1ccc2ccccc2c1C=C1C(=O)Nc2ccc(S(=O)(=O)Nc3ccc(C(F)(F)F)cc3)cc21` [10729/E02], for which the “PDGF Kinase %Inhibition” value at PDGF-R is 28.4%. Also, the “Fik Kinase %Inhibition” value on FLK-1 receptor is 26.6%. The “Met Kinase % Inhibition” value with MET came to 11.7%.
As for `COc1ccc(C=C2C(=O)Nc3ccc(S(=O)(=O)Nc4ccc(C(F)(F)F)cc4)cc32)c2ccccc12` [10729/E03], at PDGF-R, the “PDGF Kinase %Inhibition” value was 29.2%. Moreover, the “Fik Kinase %Inhibition” value on FLK-1 receptor turned out to be 6.9%. For the same compound, in the assay with MET, the “Met Kinase % Inhibition” value amounted to 27.5%.
For the compound `CSc1ccc(C=C2C(=O)Nc3ccc(S(=O)(=O)Nc4ccc(C(F)(F)F)cc4)cc32)cc1` [10729/E04], at PDGF-R, the “PDGF Kinase %Inhibition” value turned out to be 26.5%. Also, the “Fik Kinase %Inhibition” value on FLK-1 receptor is listed as 9.7%. Moreover, the “Met Kinase % Inhibition” value in the assay on MET was determined as 9.8%.
As to `Cc1ccsc1C=C1C(=O)Nc2ccc(S(=O)(=O)Nc3ccc(C(F)(F)F)cc3)cc21` [10729/E05], the “PDGF Kinase %Inhibition” value on PDGF-R was determined as 29.9%. The “Fik Kinase %Inhibition” value at FLK-1 receptor worked out at 46.8%. Also, in the assay on MET, the “Met Kinase % Inhibition” value is recorded as 13.4%.
Consider `O=C1Nc2ccc(S(=O)(=O)Nc3ccc(C(F)(F)F)cc3)cc2C1=Cc1cccc(Oc2ccccc2)c1` [10729/E06], for which, on PDGF-R, the “PDGF Kinase %Inhibition” value came out at 24.7%. Moreover, the “Fik Kinase %Inhibition” value at FLK-1 receptor is listed as 12.1%. Moreover, in the assay on MET, the “Met Kinase % Inhibition” value was -0.7%.
The like results for `O=C1Nc2ccc(S(=O)(=O)Nc3ccc(C(F)(F)F)cc3)cc2C1=Cc1ccccn1` [10729/E07] were, in that order, 29.6%, 4.1% and 21.6%.
